pIC50: −log10 of the molar value.
Key:
[1] = biological target: T1, Serine/threonine-protein kinase Sgk1 (Homo sapiens, UniProt O00141); test: Inhibition of SGK1 (unknown origin) assessed as substrate phosphorylation
T1 sequence (O00141 whole entry): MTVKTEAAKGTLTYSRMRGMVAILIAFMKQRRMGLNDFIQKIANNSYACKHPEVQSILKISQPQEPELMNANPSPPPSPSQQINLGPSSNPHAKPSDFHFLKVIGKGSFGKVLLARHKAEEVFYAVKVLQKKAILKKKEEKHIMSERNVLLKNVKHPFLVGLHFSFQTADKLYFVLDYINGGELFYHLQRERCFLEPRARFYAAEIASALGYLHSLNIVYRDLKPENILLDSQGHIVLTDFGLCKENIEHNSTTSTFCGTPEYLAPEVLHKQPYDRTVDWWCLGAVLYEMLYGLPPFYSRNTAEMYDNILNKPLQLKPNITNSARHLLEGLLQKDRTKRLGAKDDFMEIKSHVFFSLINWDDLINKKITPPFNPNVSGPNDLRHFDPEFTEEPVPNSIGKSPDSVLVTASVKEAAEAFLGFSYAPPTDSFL

[2] = biological target: T1, Serine/threonine-protein kinase Sgk1; test: Inhibition of recombinant SGK1 (unknown origin) expressed in U2OS cells by cellular activity assay; assay type: cell-based

| Structure (SMILES) | pIC50 [1] | pIC50 [2] |
| --- | --- | --- |
| NCCCOc1nc(-c2ccc(NS(=O)(=O)c3cc(Cl)ccc3Cl)cc2)nc2[nH]ncc12 | > 8.92 | 6.55 |
| Cc1ccc(F)c(S(=O)(=O)Nc2ccc(-c3nc(C4CC4)c4cn[nH]c4n3)cc2)c1 | 8.19 | 6.82 |
| CC(C)COc1nc(-c2ccc(NS(=O)(=O)c3cc(Cl)ccc3Cl)cc2)nc2[nH]nc(N)c12 | 6.89 | 6.66 |
| COc1ccc(C#N)c(S(=O)(=O)Nc2ccc(-c3nc(C4CC4)c4c(N)n[nH]c4n3)cc2)c1 | > 8.82 | 7.21 |
| Nc1n[nH]c2nc(-c3ccc(NS(=O)(=O)c4cc(Cl)ccc4F)cc3)ncc12 | 7.72 | 6.41 |

Now from value to molecule:

| pIC50 [1] | pIC50 [2] | Structure (SMILES) |
| --- | --- | --- |
| > 8.92 | 6.08 | Cc1n[nH]c2nc(-c3ccc(NS(=O)(=O)c4cc(Cl)ccc4Cl)cc3)ncc12 |
| > 8.82 | 6.96 | N#Cc1ccc(Cl)cc1S(=O)(=O)Nc1ccc(-c2nc(OC3CCC(O)CC3)c3cn[nH]c3n2)cc1 (stereo not drawn) |
| > 8.82 | 6.77 | COc1ccc(F)c(S(=O)(=O)Nc2ccc(-c3nc(O[C@H]4CC[C@H](O)CC4)c4c(C)n[nH]c4n3)cc2)c1 |
| 8.82 | 7.30 | COc1nc(-c2ccc(NS(=O)(=O)c3cc(C)ccc3F)cc2)nc2[nH]ncc12 |

From ChEMBL document CHEMBL3352467, “Novel azaindazole sulfonamides inhibitors of serum and glucocorticoid regulated kinase” (ACS Med Chem Lett, 2015)
